Reference: patent publication US9624170B2, “4-(piperrazin-1-yl)-pyrrolidin-2-one compounds as monoacylglycerol lipase (MAGL) inhibitors” (TAKEDA PHARMACEUTICAL COMPANY LIMITED, priority 2013, dated 2017)

What follows are compounds tested against T1, human MAGL (His-hMAGL) (Homo sapiens, UniProt Q99685) (assay: Measurement of MAGL inhibitory activity by mass spectrometry). Conditions: 10 μM test compound; substrate 2-arachidonylglycerol, arachidonic acid by RapidFire-mass spectrometry.
T1 construct: made in house; host or cells: Escherichia coli BL21(DE3)
T1 sequence (Q99685 1-303): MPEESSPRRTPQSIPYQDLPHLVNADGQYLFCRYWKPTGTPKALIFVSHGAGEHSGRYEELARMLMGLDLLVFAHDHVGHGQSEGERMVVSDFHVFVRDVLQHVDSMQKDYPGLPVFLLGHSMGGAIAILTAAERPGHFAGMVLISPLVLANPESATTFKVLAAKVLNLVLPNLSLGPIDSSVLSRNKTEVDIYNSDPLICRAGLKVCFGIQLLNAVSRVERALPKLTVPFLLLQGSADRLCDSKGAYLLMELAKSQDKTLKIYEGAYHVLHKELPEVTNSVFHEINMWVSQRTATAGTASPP
Assay type: biochemical
How it was run: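 His-tagged human MAGL was reacted with 150 μM 2-arachidonylglycerol substrate (stock, added by 5 μL) for 10 min at room temperature, then stopped with formic acid. Arachidonic acid product was quantified by RapidFire–triple-quadrupole MS in negative SRM mode, corrected by arachidonic acid-d8, and converted to percent inhibition.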

Compound	inhibition at 10 µM
Cc1ccccc1-c1ccc(N2CC(N3CCN(C(=O)c4nccs4)CC3)CC2=O)cc1 (stereo not drawn) [Example 176, 1-(2′-methylbiphenyl-4-yl)-4-(4-(1,3-thiazol-2-ylcarbonyl)piperazin-1-yl)pyrrolidin-2-one]	100%
Cc1ccncc1-c1ccc(N2CC(N3CCN(C(=O)c4nccs4)CC3)CC2=O)cc1 (stereo not drawn) [Example 177, 1-(4-(4-methylpyridin-3-yl)phenyl)-4-(4-(1,3-thiazol-2-ylcarbonyl)piperazin-1-yl)pyrrolidin-2-one]	80%
Cc1cnccc1-c1ccc(N2CC(N3CCN(C(=O)c4nccs4)CC3)CC2=O)cc1 (stereo not drawn) [Example 178, 1-(4-(3-methylpyridin-4-yl)phenyl)-4-(4-(1,3-thiazol-2-ylcarbonyl)piperazin-1-yl)pyrrolidin-2-one]	81%

Same assay, conditions: MAGL inhibitory rate, test compound 10 μM, His-hMAGL, substrate 2-arachidonylglycerol, RapidFire-mass spectrometry

Compound	inhibition at 10 µM
O=C(c1nccs1)N1CCN(C2CC(=O)N(c3ccc(-c4ccccc4F)cc3)C2)CC1 (stereo not drawn) [Example 179, 1-(2′-fluorobiphenyl-4-yl)-4-(4-(1,3-thiazol-2-ylcarbonyl)piperazin-1-yl)pyrrolidin-2-one]	98%
Cc1cc(-c2ccc(N3CC(N4CCN(C(=O)c5nccs5)CC4)CC3=O)cc2)n(C)n1 (stereo not drawn) [Example 180, 1-(4-(1,3-dimethyl-1H-pyrazol-5-yl)phenyl)-4-(4-(1,3-thiazol-2-ylcarbonyl)piperazin-1-yl)pyrrolidin-2-one]	94%
Cc1nn(C)cc1-c1ccc(N2CC(N3CCN(C(=O)c4nccs4)CC3)CC2=O)cc1 (stereo not drawn) [Example 181, 1-(4-(1,3-dimethyl-1H-pyrazol-4-yl)phenyl)-4-(4-(1,3-thiazol-2-ylcarbonyl)piperazin-1-yl)pyrrolidin-2-one]	94%
Cc1c(-c2ccc(N3CC(N4CCN(C(=O)c5nccs5)CC4)CC3=O)cc2)cnn1C (stereo not drawn) [Example 182, 1-(4-(1,5-dimethyl-1H-pyrazol-4-yl)phenyl)-4-(4-(1,3-thiazol-2-ylcarbonyl)piperazin-1-yl)pyrrolidin-2-one]	92%
O=C(c1nccs1)N1CCN(C2CC(=O)N(c3ccc(-c4ccoc4)cc3)C2)CC1 (stereo not drawn) [Example 184, 1-(4-(3-furyl)phenyl)-4-(4-(1,3-thiazol-2-ylcarbonyl)piperazin-1-yl)pyrrolidin-2-one]	98%
N#Cc1cccc(-c2ccc(N3CC(N4CCN(C(=O)c5nccs5)CC4)CC3=O)cc2)c1 (stereo not drawn) [Example 185, 4′-(2-oxo-4-(4-(1,3-thiazol-2-ylcarbonyl)piperazin-1-yl)pyrrolidin-1-yl)biphenyl-3-carbonitrile]	100%
O=C(c1nccs1)N1CCN(C2CC(=O)N(c3ccc(-c4cccc(CO)c4)cc3)C2)CC1 (stereo not drawn) [Example 187, 1-(3′-(hydroxymethyl)biphenyl-4-yl)-4-(4-(1,3-thiazol-2-ylcarbonyl)piperazin-1-yl)pyrrolidin-2-one]	96%
O=C(c1nccs1)N1CCN(C2CC(=O)N(c3ccc(-c4ccccc4Cl)cc3)C2)CC1 (stereo not drawn) [Example 188, 1-(2′-chlorobiphenyl-4-yl)-4-(4-(1,3-thiazol-2-ylcarbonyl)piperazin-1-yl)pyrrolidin-2-one]	99%
Cc1nc(C)c(-c2ccc(N3CC(N4CCN(C(=O)c5nccs5)CC4)CC3=O)cc2)s1 (stereo not drawn) [Example 189, 1-(4-(2,4-dimethyl-1,3-thiazol-5-yl)phenyl)-4-(4-(1,3-thiazol-2-ylcarbonyl)piperazin-1-yl)pyrrolidin-2-one]	97%
CC(=O)Nc1cccc(-c2ccc(N3CC(N4CCN(C(=O)c5nccs5)CC4)CC3=O)cc2)c1 (stereo not drawn) [Example 191, N-(4′-(2-oxo-4-(4-(1,3-thiazol-2-ylcarbonyl)piperazin-1-yl)pyrrolidin-1-yl)biphenyl-3-yl)acetamide]	96%
NS(=O)(=O)c1ccc(-c2ccc(N3CC(N4CCN(C(=O)c5nccs5)CC4)CC3=O)cc2)cc1 (stereo not drawn) [Example 193, 4′-(2-oxo-4-(4-(1,3-thiazol-2-ylcarbonyl)piperazin-1-yl)pyrrolidin-1-yl)biphenyl-4-sulfonamide]	97%
NS(=O)(=O)c1cccc(-c2ccc(N3CC(N4CCN(C(=O)c5nccs5)CC4)CC3=O)cc2)c1 (stereo not drawn) [Example 194, 4′-(2-oxo-4-(4-(1,3-thiazol-2-ylcarbonyl)piperazin-1-yl)pyrrolidin-1-yl)biphenyl-3-sulfonamide]	96%
O=C(c1nccs1)N1CCN(C2CC(=O)N(c3ccc(-c4ccncc4)cc3)C2)CC1 (stereo not drawn) [Example 196, 1-(4-(pyridin-4-yl)phenyl)-4-(4-(1,3-thiazol-2-ylcarbonyl)piperazin-1-yl)pyrrolidin-2-one]	83%
O=C(c1nccs1)N1CCN(C2CC(=O)N(c3ccc(-c4cccnc4)cc3)C2)CC1 (stereo not drawn) [Example 197, 1-(4-(pyridin-3-yl)phenyl)-4-(4-(1,3-thiazol-2-ylcarbonyl)piperazin-1-yl)pyrrolidin-2-one]	89%
O=C(c1nccs1)N1CCN(C2CC(=O)N(c3cccc(-c4cccnc4Cl)c3)C2)CC1 (stereo not drawn) [Example 199, 1-(3-(2-chloropyridin-3-yl)phenyl)-4-(4-(1,3-thiazol-2-ylcarbonyl)piperazin-1-yl)pyrrolidin-2-one]	101%
O=C1Cc2ccc(-c3cccc(N4CC(N5CCN(C(=O)c6nccs6)CC5)CC4=O)c3)cc2N1 (stereo not drawn) [Example 200, 6-(3-(2-oxo-4-(4-(1,3-thiazol-2-ylcarbonyl)piperazin-1-yl)pyrrolidin-1-yl)phenyl)-1,3-dihydro-2H-indol-2-one]	98%
O=C(c1nccs1)N1CCN(C2CC(=O)N(c3ccnc(-c4ccccc4)c3)C2)CC1 (stereo not drawn) [Example 201, 1-(2-phenylpyridin-4-yl)-4-(4-(1,3-thiazol-2-ylcarbonyl)piperazin-1-yl)pyrrolidin-2-one]	84%
Cc1ccncc1-c1cccc(N2CC(N3CCN(C(=O)c4nccs4)CC3)CC2=O)c1 (stereo not drawn) [Example 202, 1-(3-(4-methylpyridin-3-yl)phenyl)-4-(4-(1,3-thiazol-2-ylcarbonyl)piperazin-1-yl)pyrrolidin-2-one]	102%
Cc1cnccc1-c1cccc(N2CC(N3CCN(C(=O)c4nccs4)CC3)CC2=O)c1 (stereo not drawn) [Example 203, 1-(3-(3-methylpyridin-4-yl)phenyl)-4-(4-(1,3-thiazol-2-ylcarbonyl)piperazin-1-yl)pyrrolidin-2-one]	99%
Cc1cc(-c2cccc(N3CC(N4CCN(C(=O)c5nccs5)CC4)CC3=O)c2)ccn1 (stereo not drawn) [Example 204, 1-(3-(2-methylpyridin-4-yl)phenyl)-4-(4-(1,3-thiazol-2-ylcarbonyl)piperazin-1-yl)pyrrolidin-2-one]	101%
O=C(c1nccs1)N1CCN([C@@H]2CC(=O)N(c3ccc4c(cnn4-c4ccc(F)cc4)c3)C2)CC1 [Example 205, (4R)-1-(1-(4-fluorophenyl)-1H-indazol-5-yl)-4-(4-(1,3-thiazol-2-ylcarbonyl)piperazin-1-yl)pyrrolidin-2-one]	100%
Cc1cncc(-c2cccc(N3CC(N4CCN(C(=O)c5nccs5)CC4)CC3=O)c2)c1 (stereo not drawn) [Example 206, 1-(3-(5-methylpyridin-3-yl)phenyl)-4-(4-(1,3-thiazol-2-ylcarbonyl)piperazin-1-yl)pyrrolidin-2-one]	98%
O=C(c1nccs1)N1CCN(C2CC(=O)N(c3ccc(-c4ccco4)cc3)C2)CC1 (stereo not drawn) [Example 207, 1-(4-(2-furyl)phenyl)-4-(4-(1,3-thiazol-2-ylcarbonyl)piperazin-1-yl)pyrrolidin-2-one]	97%
Cc1cccc(-c2ccc(N3CC(N4CCN(C(=O)c5nccs5)CC4)CC3=O)cc2)c1 (stereo not drawn) [Example 208]	101%
N#Cc1ccccc1-c1ccc(N2CC(N3CCN(C(=O)c4nccs4)CC3)CC2=O)cc1 (stereo not drawn) [Example 209, 4′-(2-oxo-4-(4-(1,3-thiazol-2-ylcarbonyl)piperazin-1-yl)pyrrolidin-1-yl)biphenyl-2-carbonitrile]	96%
N#Cc1ccc(-c2ccc(N3CC(N4CCN(C(=O)c5nccs5)CC4)CC3=O)cc2)cc1 (stereo not drawn) [Example 210, 4′-(2-oxo-4-(4-(1,3-thiazol-2-ylcarbonyl)piperazin-1-yl)pyrrolidin-1-yl)biphenyl-4-carbonitrile]	91%
O=C(c1nccs1)N1CCN(C2CC(=O)N(c3ccc(-c4cnn5ccccc45)cc3)C2)CC1 (stereo not drawn) [Example 212, 1-(4-(pyrazolo[1,5-a]pyridin-3-yl)phenyl)-4-(4-(1,3-thiazol-2-ylcarbonyl)piperazin-1-yl)pyrrolidin-2-one]	100%
O=C(c1nccs1)N1CCN(C2CC(=O)N(c3ccc(-c4ccccc4)cc3)C2)CC1 (stereo not drawn) [Example 213, 1-(biphenyl-4-yl)-4-(4-(1,3-thiazol-2-ylcarbonyl)piperazin-1-yl)pyrrolidin-2-one]	100%
NC(=O)Cc1cccc(-c2ccc(N3CC(N4CCN(C(=O)c5nccs5)CC4)CC3=O)cc2)c1 (stereo not drawn) [Example 214, 2-(4′-(2-oxo-4-(4-(1,3-thiazol-2-ylcarbonyl)piperazin-1-yl)pyrrolidin-1-yl)biphenyl-3-yl)acetamide]	93%
O=C(c1nccs1)N1CCN(C2CC(=O)N(c3ccc(-c4ccccc4C(F)(F)F)cc3)C2)CC1 (stereo not drawn) [Example 215, 4-(4-(1,3-thiazol-2-ylcarbonyl)piperazin-1-yl)-1-(2′-(trifluoromethyl)biphenyl-4-yl)pyrrolidin-2-one]	101%
